Laboratory results reported in PubChem BioAssay AID248 (DTP/NCI, 2004).
Where “and” joins values, the source holds several entries; their conditions need not be identical. Equal entries are not always repeated. Toxic doses and inconclusive results are not listed.

Test system: L1210 leukemia ip in BDF1 mice, survival T/C
Test: NCI In Vivo Anticancer Drug Screen. Data for tumor model L1210 Leukemia (intraperitoneal) in B6D2F1 (BDF1) mice
Details: higher = longer survival
In short: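 Transplantable tumor model; survival measured in treated vs vehicle control mice. Value = treated/control.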

[1] = endpoint: mean survival time, dose: 50.0 mg/kg/injection, schedule: Q01DX009 (ip), vehicle: saline with Tween-80
[2] = endpoint: mean survival time, dose: 100.0 mg/kg/injection, schedule: Q01DX009 (ip), vehicle: saline with Tween-80
[3] = endpoint: mean survival time, dose: 100.0 mg/kg/injection, schedule: Q04DX003 (ip), vehicle: saline with Tween-80
[4] = endpoint: mean survival time, dose: 200.0 mg/kg/injection, schedule: Q04DX003 (ip), vehicle: saline with Tween-80
[5] = endpoint: mean survival time, dose: 100.0 mg/kg/injection, schedule: Q01DX009 (ip), vehicle: Klucel (hydroxypropylcellulose) (HPC)
[6] = endpoint: mean survival time, dose: 200.0 mg/kg/injection, schedule: Q01DX009 (ip), vehicle: Klucel (hydroxypropylcellulose) (HPC)
[7] = endpoint: mean survival time, dose: 100.0 mg/kg/injection, schedule: Q04DX003 (ip), vehicle: Klucel (hydroxypropylcellulose) (HPC)
[8] = endpoint: mean survival time, dose: 200.0 mg/kg/injection, schedule: Q04DX003 (ip), vehicle: Klucel (hydroxypropylcellulose) (HPC)
[9] = endpoint: mean survival time, dose: 100.0 mg/kg/injection, schedule: Q01DX001 (ip), vehicle: carboxymethylcellulose (CMC)
[10] = endpoint: mean survival time, dose: 200.0 mg/kg/injection, schedule: Q01DX001 (ip), vehicle: carboxymethylcellulose (CMC)
[11] = endpoint: mean survival time, dose: 400.0 mg/kg/injection, schedule: Q01DX001 (ip), vehicle: carboxymethylcellulose (CMC)
[12] = endpoint: mean survival time, dose: 400.0 mg/kg/injection, schedule: Q04DX003 (ip), vehicle: saline with Tween-80

O[C@H]1[C@H]2c3cc4c(cc3CN3CCC(=C[C@@H]1O)[C@H]23)OCO4
T/C (endpoint: mean survival time, dose: 50.0 mg/kg/injection, schedule: Q01DX Z (ip), vehicle: steriod suspending solution): 120 % of control
T/C (endpoint: mean survival time, dose: 75.0 mg/kg/injection, schedule: Q01DX Z (ip), vehicle: steriod suspending solution): 96 % of control and 105 % of control
T/C (endpoint: mean survival time, dose: 100.0 mg/kg/injection, schedule: Q01DX Z (ip), vehicle: steriod suspending solution): 114 % of control

CC(=O)N1c2ccccc2Sc2cc(C(O)(C(F)(F)F)C(F)(F)F)ccc21
T/C (endpoint: mean survival time, dose: 25.0 mg/kg/injection, schedule: Q01DX009 (ip), vehicle: saline with Tween-80): 95 % of control
T/C [1]: 95 % of control
T/C (endpoint: mean survival time, dose: 50.0 mg/kg/injection, schedule: Q04DX003 (ip), vehicle: saline with Tween-80): 95 % of control
T/C [2]: 95 % of control
T/C [3]: 91 % of control
T/C [4]: 91 % of control

C=CCC1(O)C(c2ccccc2)=C(c2ccccc2)C(c2ccccc2)=C1c1ccccc1
T/C (endpoint: mean survival time, dose: 50.0 mg/kg/injection, schedule: Q01DX001 (ip), vehicle: other): 98 % of control
T/C (endpoint: mean survival time, dose: 100.0 mg/kg/injection, schedule: Q01DX001 (ip), vehicle: other): 96 % of control
T/C (endpoint: mean survival time, dose: 200.0 mg/kg/injection, schedule: Q01DX001 (ip), vehicle: other): 98 % of control
T/C (endpoint: mean survival time, dose: 400.0 mg/kg/injection, schedule: Q01DX001 (ip), vehicle: other): 98 % of control

O=CCC(O)C(O)C(O)CO (stereo unspecified)
T/C (endpoint: mean survival time, dose: 62.5 mg/kg/injection, schedule: Q01DX009 (ip), vehicle: saline): 115 % of control and 91 % of control
T/C (endpoint: mean survival time, dose: 125.0 mg/kg/injection, schedule: Q01DX009 (ip), vehicle: saline): 94 % of control and 95 % of control
T/C (endpoint: mean survival time, dose: 125.0 mg/kg/injection, schedule: Q01DX010 (ip), vehicle: saline): 94 % of control and 92 % of control
T/C (endpoint: mean survival time, dose: 125.0 mg/kg/injection, schedule: Q01DX Z (ip), vehicle: carboxymethylcellulose (CMC)): 98 % of control
T/C (endpoint: mean survival time, dose: 250.0 mg/kg/injection, schedule: Q01DX001 (ip), vehicle: saline): 101 % of control
T/C (endpoint: mean survival time, dose: 250.0 mg/kg/injection, schedule: Q01DX009 (ip), vehicle: saline): 102 % of control and 104 % of control
T/C (endpoint: mean survival time, dose: 250.0 mg/kg/injection, schedule: Q01DX010 (ip), vehicle: saline): 97 % of control and 101 % of control
T/C (endpoint: mean survival time, dose: 250.0 mg/kg/injection, schedule: Q01DX Z (ip), vehicle: carboxymethylcellulose (CMC)): 102 % of control
T/C (endpoint: mean survival time, dose: 500.0 mg/kg/injection, schedule: Q01DX001 (ip), vehicle: saline): 100 % of control
T/C (endpoint: mean survival time, dose: 500.0 mg/kg/injection, schedule: Q01DX009 (ip), vehicle: saline): 101 % of control
T/C (endpoint: mean survival time, dose: 500.0 mg/kg/injection, schedule: Q01DX010 (ip), vehicle: saline): 94 % of control and 101 % of control
T/C (endpoint: mean survival time, dose: 500.0 mg/kg/injection, schedule: Q01DX Z (ip), vehicle: carboxymethylcellulose (CMC)): 116 % of control
T/C (endpoint: mean survival time, dose: 1000.0 mg/kg/injection, schedule: Q01DX001 (ip), vehicle: saline): 101 % of control
T/C (endpoint: mean survival time, dose: 1000.0 mg/kg/injection, schedule: Q01DX010 (ip), vehicle: saline): 102 % of control and 104 % of control
T/C (endpoint: mean survival time, dose: 1000.0 mg/kg/injection, schedule: Q01DX Z (ip), vehicle: carboxymethylcellulose (CMC)): 109 % of control
T/C (endpoint: mean survival time, dose: 2000.0 mg/kg/injection, schedule: Q01DX001 (ip), vehicle: saline): 106 % of control
T/C (endpoint: median survival time, dose: 62.5 mg/kg/injection, schedule: Q01DX009 (ip), vehicle: saline): 100 % of control
T/C (endpoint: median survival time, dose: 125.0 mg/kg/injection, schedule: Q01DX009 (ip), vehicle: saline): 111 % of control
T/C (endpoint: median survival time, dose: 250.0 mg/kg/injection, schedule: Q01DX009 (ip), vehicle: saline): 100 % of control
T/C (endpoint: median survival time, dose: 500.0 mg/kg/injection, schedule: Q01DX009 (ip), vehicle: saline): 100 % of control and 105 % of control

COc1cc(O)c2ccccc2c1OC(C)=O
T/C (endpoint: mean survival time, dose: 50.0 mg/kg/injection, schedule: Q01DX009 (ip), vehicle: Klucel (hydroxypropylcellulose) (HPC)): 101 % of control
T/C [5]: 90 % of control
T/C [6]: 93 % of control

O=[P+](O)C(O)c1ccccc1 (stereo unspecified)
T/C (endpoint: mean survival time, dose: 100.0 mg/kg/injection, schedule: Q01DX009 (ip), vehicle: saline): 95 % of control
T/C (endpoint: mean survival time, dose: 200.0 mg/kg/injection, schedule: Q01DX009 (ip), vehicle: saline): 95 % of control
T/C (endpoint: mean survival time, dose: 400.0 mg/kg/injection, schedule: Q01DX009 (ip), vehicle: saline): 95 % of control

CC(=O)CC(=O)Nc1ccccc1Cl
T/C [7]: 89 % of control
T/C [8]: 92 % of control
T/C (endpoint: mean survival time, dose: 400.0 mg/kg/injection, schedule: Q04DX003 (ip), vehicle: Klucel (hydroxypropylcellulose) (HPC)): 96 % of control

C=COC(=O)NC(Cc1ccccc1)C(=O)O (stereo unspecified)
T/C (endpoint: mean survival time, dose: 100.0 mg/kg/injection, schedule: Q01DX001 (ip), vehicle: saline): 97 % of control
T/C (endpoint: mean survival time, dose: 200.0 mg/kg/injection, schedule: Q01DX001 (ip), vehicle: saline): 89 % of control

CC(=O)OCCC/C(=C/c1ccc(/C=C(\CCCOC(C)=O)[N+](=O)[O-])cc1)[N+](=O)[O-]
T/C [9]: 92 % of control
T/C [10]: 97 % of control
T/C [11]: 91 % of control

CC(C)=CCC/C(C)=C\C=N\O
T/C [9]: 101 % of control
T/C [10]: 95 % of control
T/C [11]: 98 % of control

NCC(NCc1ccccc1)(c1ccccc1)c1ccccc1
T/C (endpoint: mean survival time, dose: 20.0 mg/kg/injection, schedule: Q04DX003 (ip), vehicle: Klucel (hydroxypropylcellulose) (HPC)): 94 % of control
T/C (endpoint: mean survival time, dose: 40.0 mg/kg/injection, schedule: Q04DX003 (ip), vehicle: Klucel (hydroxypropylcellulose) (HPC)): 96 % of control
T/C (endpoint: mean survival time, dose: 80.0 mg/kg/injection, schedule: Q04DX003 (ip), vehicle: Klucel (hydroxypropylcellulose) (HPC)): 102 % of control

CCCn1c(O)c(C(=O)CC)sc1=S
T/C [1]: 95 % of control
T/C [2]: 88 % of control

CN(Cc1cnc2nc(N[Si](C)(C)C)nc(N[Si](C)(C)C)c2n1)c1ccc(C(=O)NC(CCC(=O)O[Si](C)(C)C)C(=O)O[Si](C)(C)C)cc1 (stereo unspecified)
T/C (endpoint: mean survival time, dose: 0.62 mg/kg/injection, schedule: Q01DX009 (ip), vehicle: saline): 112 % of control
T/C (endpoint: mean survival time, dose: 1.25 mg/kg/injection, schedule: Q01DX009 (ip), vehicle: saline with Tween-80): 164 % of control
T/C (endpoint: mean survival time, dose: 1.25 mg/kg/injection, schedule: Q01DX009 (ip), vehicle: saline): 119 % of control
T/C (endpoint: mean survival time, dose: 2.5 mg/kg/injection, schedule: Q01DX009 (ip), vehicle: saline with Tween-80): 187 % of control
T/C (endpoint: mean survival time, dose: 5.0 mg/kg/injection, schedule: Q01DX009 (ip), vehicle: saline with Tween-80): 152 % of control
T/C (endpoint: mean survival time, dose: 5.0 mg/kg/injection, schedule: Q01DX009 (ip), vehicle: saline): 183 % of control
T/C (endpoint: mean survival time, dose: 10.0 mg/kg/injection, schedule: Q01DX009 (ip), vehicle: saline): 204 % of control

O=C1NCCNC1=O
T/C (endpoint: mean survival time, dose: 100.0 mg/kg/injection, schedule: Q04DX003 (ip), vehicle: saline): 101 % of control
T/C (endpoint: mean survival time, dose: 200.0 mg/kg/injection, schedule: Q04DX003 (ip), vehicle: saline): 100 % of control
T/C (endpoint: mean survival time, dose: 400.0 mg/kg/injection, schedule: Q04DX003 (ip), vehicle: saline): 105 % of control

O=S(=O)(F)c1ccc(Cl)cc1
T/C [3]: 101 % of control
T/C [4]: 89 % of control

COc1ccccc1CN1CCCN(Cc2ccccc2OC)C1c1ccccc1F
T/C (endpoint: mean survival time, dose: 50.0 mg/kg/injection, schedule: Q01DX001 (ip), vehicle: carboxymethylcellulose (CMC)): 114 % of control
T/C [9]: 108 % of control
T/C [10]: 96 % of control
T/C [11]: 112 % of control

COc1ccccc1/C(=C/c1ccc([N+](=O)[O-])cc1)C(=O)Nc1ccc(S(=O)(=O)F)cc1
T/C [5]: 103 % of control
T/C [6]: 92 % of control
T/C (endpoint: mean survival time, dose: 400.0 mg/kg/injection, schedule: Q01DX009 (ip), vehicle: Klucel (hydroxypropylcellulose) (HPC)): 100 % of control

Cc1c(N)c(C)c([N+](=O)[O-])c(C)c1N
T/C [3]: 91 % of control
T/C [4]: 98 % of control
T/C [12]: 98 % of control

COC(=O)CNC(=O)CCNC(=O)OCc1ccccc1
T/C [3]: 98 % of control
T/C [4]: 97 % of control
T/C [12]: 98 % of control

CN(C)c1ccc(/C=C/c2cnccn2)cc1
T/C (endpoint: mean survival time, dose: 25.0 mg/kg/injection, schedule: Q01DX009 (ip), vehicle: Klucel (hydroxypropylcellulose) (HPC)): 107 % of control
T/C [7]: 94 % of control
T/C [8]: 93 % of control

COc1cc(N(CCCl)CCCl)ccc1C=Nc1ccc(-n2ccnc2)cc1
T/C (endpoint: mean survival time, dose: 68.8 mg/kg/injection, schedule: Q04DX002 (ip), vehicle: Klucel (hydroxypropylcellulose) (HPC)): 98 % of control
T/C (endpoint: mean survival time, dose: 137.5 mg/kg/injection, schedule: Q04DX002 (ip), vehicle: Klucel (hydroxypropylcellulose) (HPC)): 98 % of control
T/C (endpoint: mean survival time, dose: 275.0 mg/kg/injection, schedule: Q04DX002 (ip), vehicle: Klucel (hydroxypropylcellulose) (HPC)): 102 % of control
